Active and inactive are the calls of the source. No cut-off for these calls is given here.
What was measured:
Spodoptera littoralis [1] = test: Antifeedant activity against newly ecdysed fifth-instar larval stage of Spodoptera littoralis in compound-pretreated lettuce leaf disks assessed as consumed area of leaf disks at 10 ug/cm'2 measured at 30 min intervals for 4-5 hr post-drug exposure by choice test; type: functional
Spodoptera littoralis [2] = test: Antifeedant activity against newly ecdysed fifth-instar larval stage of Spodoptera littoralis in compound-pretreated lettuce leaf disks assessed as consumed area of leaf disks measured at 30 min intervals for 4-5 hr post-drug exposure by choice test; type: functional, organism-based
Spodoptera littoralis [3] = test: Insecticidal activity against newly ecdysed fifth-instar larval stage of Spodoptera littoralis in compound-pretreated lettuce leaf disks assessed as mortality at 3 hr post-drug exposure; type: functional
Spodoptera littoralis [4] = test: Antifeedant activity against newly ecdysed fifth-instar larval stage of Spodoptera littoralis in compound-pretreated lettuce leaf disks assessed as consumed area of leaf disks at 1 ug/cm'2 measured at 30 min intervals for 4-5 hr post-drug exposure by choice test; type: functional
Spodoptera littoralis [5] = test: Antifeedant activity against newly ecdysed fifth-instar larval stage of Spodoptera littoralis in compound-pretreated lettuce leaf disks assessed as consumed area of leaf disks at 0.1 ug/cm'2 measured at 30 min intervals for 4-5 hr post-drug exposure by choice test; type: functional

Compound | FR50 (Spodoptera littoralis [1]) | Activity (Spodoptera littoralis [2]) | LD100 (Spodoptera littoralis [3]) | FR50 (Spodoptera littoralis [4]) | FR50 (Spodoptera littoralis [5])
CC(=O)O[C@H]1[C@@H]2[C@@H](O)[C@@]3(OC2(C)C)[C@](C)([C@H]1OC(=O)c1ccccc1)[C@@H](OC(=O)c1ccccc1)[C@H](OC(C)=O)[C@H](OC(C)=O)[C@]3(C)O | 0.38 | – | – | – | –
O=C(OC1CCOC1)c1ccccc1 (racemic) | – | inactive | inactive | – | –
O=C(OCC1CCCO1)c1ccccc1 (stereo unspecified) | – | inactive | inactive | – | –
CC(=O)O[C@@H]1[C@H]2C(=O)[C@@H](OC(=O)c3ccccc3)[C@]3(O)[C@@H](OC(C)=O)[C@@H](C(C)=O)CC(C)[C@@]13OC2(C)C (stereo partly specified) | 0.41 | – | – | – | –
CC(=O)O[C@H]1[C@@H]2[C@@H](OC(=O)c3cccnc3)[C@@]3(OC2(C)C)[C@@](C)([C@@H](OC(=O)c2ccccc2)CC[C@]3(C)O)[C@@H]1OC(C)=O | 0.04 | – | – | 0.15 | 0.45
CC(=O)O[C@H]1[C@H](OC(=O)c2ccccc2)[C@@]2(C)[C@@H](OC(=O)c3ccccc3)C[C@H]3C[C@]2(OC3(C)C)[C@@](C)(O)[C@H]1O | 0.61 | – | – | – | –
TRIPHENYLSTANNYL ACETATE | 0.37 | – | – | – | –
CC1(C)O[C@]23C[C@@H]1CC[C@]2(C)CC[C@H](O)[C@@]3(C)O | 0.52 | – | – | – | –
CC(=O)O[C@@H]1[C@H]2C[C@H](OC(=O)c3ccccc3)[C@]3(C)[C@@H](OC(=O)c4ccccc4)[C@H](O)[C@H](C(C)=O)[C@](C)(O)[C@@]13OC2(C)C | 0.56 | – | – | – | –
OC1CCOC1 (racemic) | – | inactive | inactive | – | –
CC(=O)O[C@@H]1[C@H]2C[C@H](OC(=O)c3ccccc3)[C@]3(O)[C@@H](OC(C)=O)[C@@H](C(C)=O)CC(C)[C@@]13OC2(C)C (stereo partly specified) | 0.19 | – | – | 0.54 | –
C/C=C(/C)C(=O)O[C@@H]1[C@@H]2[C@@H](OC(C)=O)[C@@]3(OC2(C)C)[C@@](OC(C)=O)([C@@H](OC(C)=O)CC[C@]3(C)O)[C@@H]1OC(=O)c1ccccc1 | 0.06 | – | – | 0.2 | –
CC(=O)O[C@@H]1[C@H]2C[C@H](OC(=O)c3ccccc3)[C@]3(C)[C@@H](OC(=O)c4ccccc4)[C@H](C(C)=O)[C@H](O)C(C)[C@@]13OC2(C)C (stereo partly specified) | 0.63 | – | – | – | –
COCCCC[C@@H]1[C@@H]2[C@@H](OC(C)=O)[C@@]3(OC2(C)C)[C@@](OC(C)=O)([C@@H](OC(=O)c2ccccc2)CC[C@]3(C)O)[C@@H]1OC(=O)c1ccccc1 | 0.45 | – | – | – | –
CC(=O)O[C@H]1CCC(C)[C@]23OC(C)(C)[C@H]([C@@H](C(C)=O)[C@H](OC(=O)c4ccccc4)[C@]12OC(C)=O)[C@H]3OC(C)=O (stereo partly specified) | 0.04 | – | – | 0.44 | –
CC(=O)O[C@@H]1[C@H]2[C@@H](OC(=O)c3ccccc3)[C@@H](OC(=O)c3ccccc3)[C@]3(OC(C)=O)[C@@H](OC(=O)c4ccccc4)CC[C@](C)(O)[C@@]13OC2(C)C | 0.76 | – | – | – | –
CC(=O)O[C@H]1C[C@](C)(O)[C@]23OC(C)(C)[C@H](C(=O)[C@@H](OC(=O)c4ccccc4)[C@]2(OC(C)=O)[C@H]1OC(=O)c1ccccc1)[C@H]3OC(C)=O | – | – | 0.1 microg/cm2 | – | –
CC(=O)O[C@H]1C[C@](C)(O)[C@]23OC(C)(C)[C@H]([C@@H](C(C)=O)[C@@H](OC(=O)c4ccccc4)[C@]2(OC(C)=O)[C@H]1OC(C)=O)[C@H]3OC(C)=O | 0.05 | – | – | 0.24 | 0.4
CC(=O)O[C@H]1[C@H](OC(=O)c2ccccc2)[C@@]2(C)[C@@H](OC(=O)c3ccccc3)C[C@@H]3[C@@H](O)[C@]2(OC3(C)C)[C@@](C)(O)[C@H]1O | 0.6 | – | – | – | –
CC(=O)O[C@@H]1[C@@H]2[C@@H](OC(C)=O)[C@]3(OC2(C)C)C(C)C[C@H](C(C)=O)[C@H](OC(C)=O)[C@@]3(OC(C)=O)[C@H]1OC(=O)c1ccccc1 (stereo partly specified) | 0.07 | – | – | 0.53 | –
CC(=O)O[C@H]1CC[C@](C)(O)[C@]23OC(C)(C)[C@H](C[C@H](OC(=O)c4ccccc4)[C@]12OC(C)=O)[C@H]3OC(C)=O | 0.11 | – | – | 0.12 | 0.4
OC1CCOC1 (stereo in doubt; 46) | – | inactive | inactive | – | –
CC(=O)O[C@H]1C[C@@H]2[C@@H](OC(=O)c3cccnc3)[C@@]3(OC2(C)C)[C@@]1(C)[C@@H](OC(=O)c1ccccc1)CC[C@]3(C)O | 0.68 | – | – | – | –
CC[C@@H]1CCC(=O)O[C@H]2[C@H](OC(C)=O)[C@H](OC(C)=O)[C@@]3(OC(C)=O)[C@H](OC(C)=O)C(=O)[C@@H]4[C@@H](OC(C)=O)[C@]3(O[C@@]4(C)COC(=O)c3ccccc31)[C@@]2(C)O [ORTHOSPHENINE] | – | – | 0.01 microg/cm2 | – | –
CC(=O)O[C@H]1CCC(C)[C@]23OC(C)(C)[C@H]([C@@H](O)[C@H](OC(=O)c4ccccc4)[C@]12OC(C)=O)[C@H]3OC(C)=O (stereo partly specified) | 0.05 | – | – | 0.25 | –
CCC(C)C(=O)OC (single isomer, unassigned; (+)) | – | inactive | inactive | – | –

Compound | FR50 (Spodoptera littoralis [1]) | Activity (Spodoptera littoralis [2]) | LD100 (Spodoptera littoralis [3]) | FR50 (Spodoptera littoralis [4]) | FR50 (Spodoptera littoralis [5])
CC(=O)O[C@@H]1[C@@H]2[C@@H](OC(C)=O)[C@@]3(OC2(C)C)[C@](O)([C@@H]1OC(=O)c1ccccc1)[C@@H](OC(C)=O)[C@@H](C(C)=O)C[C@]3(C)O | 0.16 | – | – | 0.66 | –
CC(=O)OCC1CCCO1 (stereo unspecified) | – | inactive | inactive | – | –
CC(=O)O[C@@H]1[C@H]2C[C@H](OC(=O)c3ccccc3)[C@]3(OC(C)=O)[C@@H](OC(C)=O)[C@@H](C(C)=O)CC(C)[C@@]13OC2(C)C (stereo partly specified) | 0.36 | – | – | – | –
CC(=O)O[C@@H]1[C@H]2C[C@H](OC(=O)c3ccccc3)[C@]3(C)[C@@H](OC(=O)c4ccccc4)[C@H](C(C)=O)[C@H](C(C)=O)[C@](C)(O)[C@@]13OC2(C)C | 0.65 | – | – | – | –
OCC1CCOC1 (stereo unspecified) | – | inactive | inactive | – | –
CC(=O)O[C@@H]1[C@@H](O)[C@@H]2[C@@H](OC(=O)c3cccnc3)[C@@]3(OC2(C)C)[C@@]1(C)[C@@H](OC(=O)c1ccccc1)CC[C@]3(C)O | 0.74 | – | – | – | –
CC(=O)O[C@H]1CC[C@](C)(O)[C@]23OC(C)(C)[C@H]([C@@H](OC(=O)c4ccccc4)[C@@H](OC(=O)c4ccccc4)[C@]12OC(C)=O)[C@H]3OC(C)=O | 0.15 | – | – | 0.4 | –
CC(=O)O[C@H]1C[C@](C)(O)[C@]23OC(C)(C)[C@H](C(=O)[C@@H](OC(=O)c4ccccc4)[C@]2(OC(C)=O)[C@H]1OC(C)=O)[C@H]3OC(C)=O | – | – | 1 microg/cm2 | – | –
CC(=O)OCC1CCOC1 (stereo unspecified) | – | inactive | inactive | – | –
CC(=O)O[C@H]1[C@H](OC(=O)c2ccccc2)[C@@]2(C)[C@@H](O/C=C/c3ccccc3)C[C@@H]3[C@@H](OC(C)=O)[C@]2(OC3(C)C)[C@@](C)(O)[C@H]1O | 0.76 | – | – | – | –
O=C(OCC1CCCO1)c1cc([N+](=O)[O-])cc([N+](=O)[O-])c1 (stereo unspecified) | – | inactive | inactive | – | –
CC(=O)O[C@@H]1[C@@H]2[C@@H](OC(C)=O)[C@]3(OC2(C)C)C(C)C[C@H](C(C)=O)[C@H](OC(C)=O)[C@@]3(O)[C@H]1OC(=O)c1ccccc1 (stereo partly specified) | 0.13 | – | – | 0.71 | –
OCC1CCCO1 (stereo unspecified) | – | inactive | inactive | – | –
CC(=O)O[C@H]1C[C@](C)(O)[C@]23OC(C)(C)[C@H]([C@@H](C(C)=O)[C@@H](OC(=O)c4ccccc4)[C@]2(OC(C)=O)[C@H]1OC(=O)c1ccccc1)[C@H]3O | 0.1 | – | – | 0.19 | 1.02
CC(=O)O[C@@H]1[C@H]2C[C@H](OC(=O)c3ccccc3)[C@]3(C)[C@@H](OC(=O)c4ccccc4)[C@H](C(C)=O)C[C@](C)(O)[C@@]13OC2(C)C | 0.35 | – | – | – | –
CC(=O)OC1CCOC1 (racemic) | – | inactive | inactive | – | –
CC(=O)O[C@@H]1[C@@H]2[C@@H](OC(C)=O)[C@@]3(OC2(C)C)[C@@](OC(C)=O)([C@@H](OC(C)=O)CC[C@]3(C)O)[C@@H]1OC(=O)c1ccccc1 | 0.03 | – | – | 0.2 | 0.64
CC(=O)O[C@H]1[C@H](OC(=O)c2ccccc2)[C@@]2(C)[C@@H](OC(=O)c3ccccc3)C[C@@H]3[C@@H](OC(C)=O)[C@]2(OC3(C)C)[C@@](C)(O)[C@H]1O [2BETA,3BETA,4BETA,TRIHYDROXYCELARBICO] | 0.24 | – | – | 0.44 | –
COCCCC[C@@H]1[C@@H]2[C@@H](OC(C)=O)[C@@]3(OC2(C)C)[C@](OC(C)=O)([C@@H]1OC(=O)c1ccccc1)[C@@H](O)CC[C@]3(C)O | 0.08 | – | – | 0.23 | 0.57
C/C=C(/C)C(=O)O[C@@H]1[C@@H]2[C@@H](OC(C)=O)[C@@]3(OC2(C)C)[C@@](OC(C)=O)([C@@H](OC(=O)c2ccccc2)CC[C@]3(C)O)[C@@H]1OC(=O)c1ccccc1 | 0.12 | – | – | 0.29 | –
CC(=O)O[C@H]1C[C@](C)(O)[C@]23OC(C)(C)[C@H]([C@@H](C(C)=O)[C@@H](OC(=O)c4ccccc4)[C@]2(OC(C)=O)[C@H]1OC(=O)c1ccccc1)[C@H]3OC(C)=O | 0.35 | – | – | – | –
CC(=O)OC1CCOC1 (single isomer, unassigned; (+)) | – | inactive | inactive | – | –
CC(=O)O[C@H]1C[C@](C)(O)[C@]23OC(C)(C)[C@H]([C@@H](OC(C)=O)[C@@H](OC(=O)c4ccccc4)[C@]2(OC(C)=O)C1)[C@H]3OC(C)=O | 0.1 | – | – | 0.18 | 1.1
O=C(OC1CCOC1)c1cc([N+](=O)[O-])cc([N+](=O)[O-])c1 (racemic) | – | inactive | inactive | – | –
CC(=O)O[C@@H]1[C@@H]2[C@@H](OC(C)=O)[C@@]3(OC2(C)C)[C@@](OC(C)=O)([C@@H](OC(=O)c2ccccc2)CC[C@]3(C)O)[C@@H]1OC(=O)c1ccccc1 | 0.24 | – | – | 0.58 | –
CCC(C)C(=O)OC (stereo in doubt; 54) | – | inactive | inactive | – | –
